Measurements as given in US7732485B2, “Treatment of cancer” (The University of Manchester, priority 2003, dated 2010).

Key:
cor123 = assay: Comet assay, DNA crosslinking; assay type: cell-based, human; conditions: ratio >1 = more cross-linking in parental than in platinum-resistant line
Method: (§1) Preliminary studies have been carried out to investigate the mechanism underlying this increased sensitivity. These studies were carried out using the Comet assay (described in Appendix C), which measures damage to DNA. The results are shown in FIGS. 1 (cisplatinum), 2 (carboplatinum), 3 to 8 (compounds A-F) and 9 (phenylgoldtriphenylphospine, PAuP).
(§2) Table 3 illustrates the results of the following calculation using the DNA cross-linking results obtained in the Comet assays:
(§3) DNA damage was measured by the single cell gel electrophoresis (SCGE) assay or “Comet assay”, originally developed by Ostling and Johnson^8. This is a method for determining the extent of DNA damage and repair capacity within individual cells.^9-11 It has previously been shown that this technique can be used to investigate the mechanism of action of different DNA damaging agents.^12
(§4) Cells were trypsinised, suspended in 0.5 ml of ice cold fresh medium and transferred into plastic 24-well dishes prior to embedding in agarose. For the cross-linking studies treated and control samples were chilled on ice (to prevent any repair of DNA damage) and irradiated to a dose of 20 Gy in a Caesium-137 source (0.4 Gy/min). Control, (unirradiated, non-drug treated cells) were maintained on ice in the same manner as treated samples.
(§5) Glass microscope slides, frosted at one end, were pre-coated with 1% normal agarose in distilled water. These slides were allowed to air dry overnight prior to use. A 1% low melting point agarose (LMP) mixture in PBS was melted and held at 45° C. 1 ml of LMP was then added to 0.5 ml of cell suspension on ice and the resultant mixture was pipetted onto a pre-coated glass microscope slide and allowed to set for 1-2 minutes before being transferred to an ice tray. The slides were immersed in ice cold lysis solution (100 mM EDTA, 10 mM Tris-HCl, 1% Triton ×100, 1% DMSO, 2.5M NaCl) for 1 hr, and washed three times by immersion in fresh double distilled water for 15 minutes.
(§6) Slides were then placed onto a flat bed electrophoresis tank and covered (5-6 mm) with alkali unwinding solution (50 mM NaOH, 1 mM EDTA buffered to pH 12.5) and left under subdued lighting for 45 minutes to allow the DNA to unwind before being subjected to electrophoresis at 0.6V/cm for 25 minutes. Each slide was rinsed with 2×1 ml of 0.4M Tris-HCl, pH 8.0 and allowed to dry in air. The dried slides were then rehydrated for 20 minutes with double distilled water, 2×1 ml of propidium iodide solution (2.5 μg/ml) was added and staining was allowed to proceed for 15 minutes. Slides were then immersed in 1 litre of double distilled water for 1 hour to reduce excess background staining. The slides were cover slipped and then examined at 250× magnification under an epifluorescent microscope (Zeiss-Jenamed) using green light from a 50 watt mercury source with a 580 nm reflector and a 590 nm barrier filter set. Images were captured using an attached Sony HAD-1 interline CCD camera and Komet software analysis package (Kinetic Imaging). Twenty-five images from each of two duplicate slides were captured and analysed and the individual “comet moments” as defined by Olive et al^13, were calculated. The total fluorescence of the image represents the amount of DNA present and the length of the image, measured in pixels, represents the length of migration of the DNA. The head and tail areas of the image were identified and the intensity of each was determined. The tail moment is calculated by multiplying the fraction of DNA present in the tail by half the length of the tail.

A2780mcp1 = assay: Comet assay, DNA crosslinking; assay type: cell-based, human; conditions: ratio >1 = more cross-linking in parental than in platinum-resistant line
Method: as §1, §2, §3, §4, §5, §6

A2780/mcp8 = assay: Comet assay, DNA crosslinking; assay type: cell-based, human; conditions: ratio >1 = more cross-linking in parental than in platinum-resistant line
Method: as §1, §2, §3, §4, §5, §6

A2780cis = assay: Comet assay, DNA crosslinking; assay type: cell-based, human; conditions: ratio >1 = more cross-linking in parental than in platinum-resistant line
Method: as §1, §2, §3, §4, §5, §6

ccu24 = assay: Comet assay, DNA crosslinking; assay type: cell-based, human; conditions: ratio >1 = more cross-linking in parental than in platinum-resistant line
Method: as §1, §2, §3, §4, §5, §6

A2780carb = assay: Comet assay, DNA crosslinking; assay type: cell-based, human; conditions: ratio >1 = more cross-linking in parental than in platinum-resistant line
Method: as §1, §2, §3, §4, §5, §6

[1] = tested on: parental and platinum-resistant cell lines; assay: Comet assay, DNA cross-linking, summary of FIGS. 1-9; assay type: cell-based; conditions: for DNA cross-linking in parental cell lines: parental (platinum-sensitive) A2780, L1210 and cor123 cell lines; for DNA cross-linking in parental cell lines / DNA cross-linking in platinum-resistant cell lines: FIGS. 1 and 2
Method: as §1, §3, §4, §5, §6

L1210 = assay: Comet assay, DNA crosslinking; assay type: cell-based, murine; conditions: ratio >1 = more cross-linking in parental than in platinum-resistant line
Method: as §1, §2, §3, §4, §5, §6

eleven cell lines = assay: Growth inhibition assay (modified MTT), summary over cell lines; assay type: cell-based, mouse and human; conditions: text reference to Table 1; cell line not stated
Method: (§7) The sensitivities of the cell lines to cisplatinum, carboplatinum, and compounds A-F were determined using a growth inhibition assay which was a modified version of the MTT method (modified version of MTT method described in Appendix B).
The following is a brief description of the eleven different cell lines used in the growth inhibition assay: • The A2780 cell line (1 in FIGS. 1-9) is a human ovarian cell line which is sensitive to cisplatinum and carboplatinum. […] The cor123/cpr (7) cell line is a modified version of the cor123 cell line which has been modified to be resistant to cisplatinum and carboplatinum. • The ccu24 (8) cell line is an epithelial ovarian cancer cell line, developed at the Christie Hospital from a tumour biopsy, and the ccu24/cpr (9) cell line is a modified version of this cell line which is cisplatinum and carboplatinum resistant. • L1210 (10) is a murine leukemia cell line and L1210/M1140 (11) is its platinum drug resistant subline. […]
Compounds under investigation were dissolved in DMSO (dimethylsulphoxide). […] The plates were read using a Multiskan platereader at 540 nm and 690 nm. Growth inhibition curves were constructed using mean and standard deviation of the triplicate absorbance values and from these curves the IC50 values were calculated.

A2780cis cell line = assay: Growth inhibition assay (modified MTT); assay type: cell-based, human; conditions: for IC50: A2780cis, five-day MTT
Method: as §7
(§8) The following is a brief description of the eleven different cell lines used in the growth inhibition assay: • The A2780 cell line (1 in FIGS. 1-9) is a human ovarian cell line which is sensitive to cisplatinum and carboplatinum. […] The cor123/cpr (7) cell line is a modified version of the cor123 cell line which has been modified to be resistant to cisplatinum and carboplatinum. • The ccu24 (8) cell line is an epithelial ovarian cancer cell line, developed at the Christie Hospital from a tumour biopsy, and the ccu24/cpr (9) cell line is a modified version of this cell line which is cisplatinum and carboplatinum resistant. • L1210 (10) is a murine leukemia cell line and L1210/M1140 (11) is its platinum drug resistant subline.
(§9) The cell toxicity studies were performed using a modification of the method MTT.^7 The principle of the assay is to assess the growth inhibitory effect of a drug at various doses over a five-day time course. This assay was performed in 96-well microtitre plates. Cells were seeded at densities of 400-1,000 cells per well, depending on the doubling time of the cell line. All cell dilutions were performed in growth medium containing 10% FCS (foetal calf serum).
(§10) Compounds under investigation were dissolved in DMSO (dimethylsulphoxide). Serial dilutions of compound were made into the cell suspension, ensuring that the proportion of DMSO remained below 0.5%. 200 μl of cells and drug mix was added to the 96-well plates in triplicate. The plates were incubated for five days at 5% CO2 and 37° C. After this time, the plates were removed from the incubator and 50 μl of a 3 mg/ml solution of MTT [3-(4,5-dimethyl-thiazol-2-yl)-2,5-diphenyl tetrazolium bromide] was added to each well and incubated in the same conditions for another 3 hours. The medium from each well was aspirated and the formazan crystals were solubilised in 200 μl of DMSO. The plates were read using a Multiskan platereader at 540 nm and 690 nm. Growth inhibition curves were constructed using mean and standard deviation of the triplicate absorbance values and from these curves the IC50 values were calculated.

A2780-S cell line = assay: Growth inhibition assay (modified MTT); assay type: cell-based, human; conditions: five-day MTT
Method: as §7, §8, §9, §10

L1210/M1140 cell line = assay: Growth inhibition assay (modified MTT); assay type: cell-based, murine; conditions: five-day MTT
Method: as §7, §8, §9, §10

L1210 cell line = assay: Growth inhibition assay (modified MTT); assay type: cell-based, murine; conditions: five-day MTT
Method: as §7, §8, §9, §10

mcp1 cell line = assay: Growth inhibition assay (modified MTT); assay type: cell-based, human; conditions: five-day MTT
Method: as §7, §8, §9, §10

A2780carb cell line = assay: Growth inhibition assay (modified MTT); assay type: cell-based, human; conditions: for IC50: A2780carb, five-day MTT
Method: as §7, §8, §9, §10

cor123 cell line = assay: Growth inhibition assay (modified MTT); assay type: cell-based, human; conditions: five-day MTT
Method: as §7, §8, §9, §10

ccu24 cell line = assay: Growth inhibition assay (modified MTT); assay type: cell-based, human; conditions: five-day MTT
Method: as §7, §8, §9, §10

ccu24/cpr cell line = assay: Growth inhibition assay (modified MTT); assay type: cell-based, human; conditions: five-day MTT
Method: as §7, §8, §9, §10

mcp8 cell line = assay: Growth inhibition assay (modified MTT); assay type: cell-based, human; conditions: five-day MTT
Method: as §7, §8, §9, §10

cor123/cpr cell line = assay: Growth inhibition assay (modified MTT); assay type: cell-based, human; conditions: five-day MTT
Method: as §7, §8, §9, §10

[2] = Table 1, first series of assays
[3] = Table 2, further series of assays
[4] = Table 2, further series of assays, A2780/mcp1
[5] = Table 2, further series of assays, A2780/mcp8
[6] = Table 1, first series of assays, mcp1
[7] = Table 1, first series of assays, mcp8

Structure (SMILES) | DNA crosslinking (Comet) ratio (cor123) | DNA crosslinking (Comet) ratio (A2780mcp1) | DNA crosslinking (Comet) ratio (A2780/mcp8) | DNA crosslinking (Comet) ratio (A2780cis) | DNA crosslinking (Comet) ratio (ccu24) | DNA crosslinking (Comet) ratio (A2780carb) | DNA crosslinking (Comet) ratio (L1210) | IC50 (A2780cis cell line; [2]) [µM] | IC50 (A2780-S cell line; [2]) [µM] | IC50 (L1210/M1140 cell line; [3]) [µM] | IC50 (L1210 cell line; [3]) [µM] | DNA cross-linking in parental cell lines [1] | DNA cross-linking in platinum-resistant cell lines [1] | IC50 (mcp1 cell line; [4]) [µM] | IC50 (A2780cis cell line; [3]) [µM] | IC50 (A2780-S cell line; [3]) [µM] | IC50 (A2780carb cell line; [3]) [µM] | IC50 (cor123 cell line; [3]) [µM] | IC50 (ccu24 cell line; [3]) [µM] | IC50 (ccu24/cpr cell line; [3]) [µM] | other results
[Au+].[c-]1ccccc1.c1ccc([PH+](c2ccccc2)c2ccccc2)cc1 [PAuP, phenylgoldtriphenylphospine, reference compound] | 0.75 | 1.33 | 1.33 | 1.00 | 1.00 | 1.33 | 1.33 | > 10 | > 10 |  |  |  |  |  |  |  |  |  |  |  | level of cross-linking ([1]; FIG. 9, compared to the di-gold compounds): low compared to the di-gold compounds; ID50 (cytotoxicity) (eleven cell lines): > 10000 mu
N.N.O=C([O-])C1(C(=O)[O-])CCC1.[Pt+2] [Carboplatin, carboplatin, reference compound] |  |  |  |  |  |  |  |  |  | 47.8 | 15.3 | extensive DNA cross-linking | much less cross-linking | 24.8 | 34.6 | 1.59 | 32.1 | 5.35 | 5.82 | 27.2 | IC50 (mcp8 cell line; [5]): 26.8 µM; IC50 (cor123/cpr cell line; [3]): 29.8 µM
c1ccc([PH]([Au][c]2cc[c]([Au][PH](c3ccccc3)(c3ccccc3)c3ccccc3)cc2)(c2ccccc2)c2ccccc2)cc1 [A, 1,4-bis-(triphenylphospinogold(I))benzene] | 0.56 | 0.59 | 0.60 | 0.50 | 0.40 | 0.53 | 0.69 | 0.0002 | 0.0134 | 0.0092 | 0.0416 |  |  | 0.0035 | 0.0005 | 0.0165 | 0.0009 | 0.0222 | 0.0283 | 0.0064 | IC50 (L1210/M1140 cell line; [2]): 0.0064 µM; IC50 (L1210 cell line; [2]): 0.0383 µM; IC50 (mcp1 cell line; [6]): 0.0005 µM; sensitivity of A2780cis relative to parental A2780-S line (A2780cis cell line; from IC50 0.2 nM vs 13.4 nM): over sixty-times more sensitive; IC50 (A2780carb cell line; [2]): 0.0006 µM; sensitivity of A2780carb relative to parental A2780-S line (A2780carb cell line; from IC50 0.6 nM vs 13.4 nM): over twenty-times more sensitive; IC50 (cor123 cell line; [2]): 0.0193 µM; IC50 (ccu24 cell line; [2]): 0.0253 µM; IC50 (ccu24/cpr cell line; [2]): 0.0036 µM; IC50 (mcp8 cell line; [7]): 0.0006 µM; IC50 (mcp8 cell line; [5]): 0.0046 µM; IC50 (cor123/cpr cell line; [2]): 0.0015 µM; IC50 (cor123/cpr cell line; [3]): 0.0045 µM
N.N.[Cl][Pt][Cl] [Cisplatin, cisplatin, reference compound] | 5.72 | 5.40 | 5.70 | 5.65 | 4.65 |  | 3.37 | 30.5 | 1.32 |  |  | extensive DNA cross-linking | much less cross-linking |  |  |  |  |  |  |  | IC50 (L1210/M1140 cell line; [2]): 44.9 µM; IC50 (L1210 cell line; [2]): 12.1 µM; DNA crosslinking (Comet) ratio, all resistant cell lines ([1]; summary of Table 3): a ratio greater than unity; IC50 (mcp1 cell line; [6]): 19.9 µM; IC50 (A2780carb cell line; [2]): 27.6 µM; IC50 (cor123 cell line; [2]): 3.43 µM; IC50 (ccu24 cell line; [2]): 4.32 µM; IC50 (ccu24/cpr cell line; [2]): 24.9 µM; IC50 (mcp8 cell line; [7]): 24.4 µM; IC50 (cor123/cpr cell line; [2]): 26.7 µM
